Patent US8829030B2 (priority 2002, dated 2014)
Like-named read-outs stand apart in the source and are kept apart here.

Biological target: recombinant HCV RNA-dependent RNA polymerase (NS5B protein) (Hepatitis C virus genotype 1b, UniProt P26663)
Experiment: biochemical
Set-up: species or system HCV-Bk strain

Chain of recombinant HCV RNA-dependent RNA polymerase (NS5B protein) (P26663 2420-3010 limits assumed): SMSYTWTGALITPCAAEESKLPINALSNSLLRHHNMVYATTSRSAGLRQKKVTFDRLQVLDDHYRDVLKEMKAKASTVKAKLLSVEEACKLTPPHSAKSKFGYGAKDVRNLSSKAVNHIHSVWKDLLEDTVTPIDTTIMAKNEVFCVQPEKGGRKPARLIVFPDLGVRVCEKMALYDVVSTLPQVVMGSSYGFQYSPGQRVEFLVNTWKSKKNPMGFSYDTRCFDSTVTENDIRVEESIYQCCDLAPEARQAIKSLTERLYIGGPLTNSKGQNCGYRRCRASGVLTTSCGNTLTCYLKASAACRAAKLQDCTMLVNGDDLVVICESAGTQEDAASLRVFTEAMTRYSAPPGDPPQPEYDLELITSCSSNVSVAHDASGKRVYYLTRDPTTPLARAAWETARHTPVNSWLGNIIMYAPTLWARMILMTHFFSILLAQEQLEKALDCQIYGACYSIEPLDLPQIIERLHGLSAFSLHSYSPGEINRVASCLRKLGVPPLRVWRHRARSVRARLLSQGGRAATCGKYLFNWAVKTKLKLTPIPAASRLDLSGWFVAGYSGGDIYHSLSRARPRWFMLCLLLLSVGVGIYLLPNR

Question: For `CC1CCC(C(=O)N(c2cc(-c3ccccc3)sc2C(=O)O)C(C)CN=[N+]=[N-])CC1` (stereo not shown) [Compound 32, 3-[(2-azido-1-methyl-ethyl)-(4-methyl-cyclohexanecarbonyl)-amino]-5-phenyl-thiophene-2-carboxylic acid], which IC50 is on record?
Answer: < 5 µM

Question: How did the IC50 turn out when `CC(=O)NC1CC(C)CCC1C(=O)N(c1cc(-c2ccccc2)sc1C(=O)O)C(C)C` (stereo not shown) [Compound 12, 3-[(2-acetylamino-4-methyl-cyclohexanecarbonyl)-isopropyl-amino]-5-phenyl-thiophene-2-carboxylic acid] was run?
Answer: 5 to 20 µM

Question: `CC1CCC(C(=O)N(c2cc(-c3ccccc3)sc2C(=O)O)C2CCC(=NO)CC2)CC1` (stereo not shown) [Compound 16, 3-[(4-hydroxyimino-cyclohexyl)-(4-methyl-cyclohexanecarbonyl)-amino]-5-phenyl-thiophene-2-carboxylic acid] was tested. Which IC50 did it give?
Answer: < 5 µM

Question: For `CC1CCC(C(=O)N(CC2CCCN(C)C2)c2cc(-c3ccc(F)cc3)sc2C(=O)O)CC1` (stereo not shown) [Compound 69, 5-(4-fluorophenyl)-((4-methyl-cyclohexanecarbonyl)-1-(methyl-piperidin-3-ylmethyl)-amino)-thiophene-2-carboxylic acid], which IC50 is on record?
Answer: < 5 µM

Question: How did the IC50 (read-out: Activity (polymerase activity, IC50)) turn out when `CNC(=O)N1CCC(N(C(=O)C2CCC(C)CC2)c2cc(-c3ccccc3)sc2C(=O)O)CC1` (stereo not shown) [Compound 74, 3-[(1-methylcarbamoyl-piperidin-4-yl)-(4-methyl-cyclohexanecarbonyl)-amino]-5-phenyl-thiophene-2-carboxylic acid] was run?
Answer: < 5 µM

Question: How did the IC50 turn out when `C[C@H]1CC[C@H](C(=O)N(c2cc(-c3ccccc3)sc2C(=O)O)[C@H]2CCC[C@H](O)C2)CC1` (stereo in doubt) [Compound 89, 3-[(3-hydroxy-cyclohexyl)-(4-methyl-cyclohexanecarbonyl)-amino]-5-phenyl-thiophene-2-carboxylic acid] was run?
Answer: < 5 µM

Question: How did the IC50 turn out when `CC(=O)N1CCC(N(C(=O)C2CCC(C)CC2)c2cc(-c3ccccc3)sc2C(=O)O)CC1` (stereo not shown) [Compound 48, 3-[(1-acetyl-piperidin-4-yl)-(4-methyl-cyclohexanecarbonyl)-amino]-5-phenyl-thiophene-2-carboxylic acid] was run?
Answer: < 5 µM

Question: `C=C1CCC(C(=O)N(c2cc(-c3ccccc3)sc2C(=O)O)C(C)C)CC1` [Compound 28, 3-[isopropyl-(4-methylene-cyclohexanecarbonyl)-amino]-5-phenyl-thiophene-2-carboxylic acid] was tested. Which IC50 did it give?
Answer: < 5 µM

Question: With `CC(=O)c1ccc(-c2cc(N(C(=O)[C@H]3CC[C@H](C)CC3)[C@H]3CC[C@H](O)CC3)c(C(=O)O)s2)s1` [Compound 80, 5′-acetyl-4-[(4-hydroxy-cyclohexyl)-(4-methyl-cyclohexanecarbonyl)-amino]-[2,2′]bithiophenyl-5-carboxylic acid] as the molecule, how does the IC50 read?
Answer: < 5 µM

Question: For `CS(=O)(=O)N1CCC(N(c2cc(-c3ccccc3)sc2C(=O)O)C(=O)[C@H]2CC[C@H](C)CC2)CC1` [Compound 70, 3-[(1-methanesulfonyl-piperidin-4-yl)-(4-methyl-cyclohexanecarbonyl)-amino]-5-phenyl-thiophene-2-carboxylic acid], which IC50 is on record?
Answer: < 5 µM

Question: With `C[C@H]1CC[C@H](C(=O)N(c2cc(-c3ccccc3)sc2C(=O)O)C2CCSCC2)CC1` [Compound 34, 3-[(trans-4-Methyl-cyclohexanecarbonyl)-(tetrahydro-thiopyran-4-yl)-amino]-5-phenyl-thiophene-2-carboxylic acid] as the molecule, how does the IC50 read?
Answer: < 5 µM

Question: `CC1=CCC(C(=O)N(c2cc(-c3ccccc3)sc2C(=O)O)C(C)C)OC1` (stereo not shown) [Compound 30, 3-[isopropyl-(5-methyl-3,6-dihydro-2H-pyran-2-carbonyl)-amino]-5-phenyl-thiophene-2-carboxylic acid] was tested. Which IC50 did it give?
Answer: < 5 µM

Question: Which IC50 does the source give for `C[C@H]1CC[C@H](C(=O)N(c2cc(-c3ccccc3)sc2C(=O)O)[C@H]2CC[C@H](O)C2)CC1` [Compound 90, 3-[(3-hydroxy-cyclopentyl)-(4-methyl-cyclohexanecarbonyl)-amino]-5-phenyl-thiophe-2-carboxylic acid] here?
Answer: < 5 µM

Question: `CON=C1CCC(N(C(=O)C2CCC(C)CC2)c2cc(-c3ccccc3)sc2C(=O)O)CC1` (stereo not shown) [Compound 25, 3-[(4-methoxyimino-cyclohexyl)-(4-methyl-cyclohexanecarbonyl)-amino]-5-phenyl-thiophene-2-carboxylic acid] was tested. Which IC50 did it give?
Answer: < 5 µM

Question: With `CC1CCC(C(=O)N(CC2CCCN(C)C2)c2cc(-c3ccccc3)sc2C(=O)O)CC1` (stereo not shown) [Compound 35, 3-{[(2-carboxy-5-phenyl-thiophen-3-yl)-(4-methyl-cyclohexanecarbonyl)-amino]-methyl}-1-methyl-piperidinium chloride] as the molecule, how does the IC50 read?
Answer: < 5 µM

Question: `CCC(C)C(CN)N(C(=O)c1ccc(Cl)cc1Cl)c1cc(-c2ccccc2)sc1C(=O)O` (stereo not shown) [Compound 20, 3-[(1-aminomethyl-2-methyl-butyl)-(2,4-dichloro-benzoyl)-amino]-5-phenyl-thiophene-2-carboxylic acid] was tested. Which IC50 did it give?
Answer: 5 to 20 µM

Question: Which IC50 does the source give for `O=C(O)c1sc(-c2ccccc2)cc1N(CC1OCCO1)C(=O)c1ccc(Cl)cc1Cl` [Compound 7, 3-[(2,4-dichloro-benzoyl)-[1,3]dioxolan-2-ylmethyl-amino]-5-phenyl-thiophene-2-carboxylic acid] here?
Answer: < 5 µM

Question: For `CC1CCC(C(=O)N(c2cc(-c3ccccc3)sc2C(=O)O)C2CCN(C(N)=O)CC2)CC1` (stereo not shown) [Compound 81, 3-[(1-carbamoyl-piperidin-4-yl)-(4-methyl-cyclohexanecarbonyl)-amino]-5-phenyl-thiophene-2-carboxylic acid], which IC50 is on record?
Answer: < 5 µM

Question: `CC1(O)CCC(N(c2cc(-c3ccccc3)sc2C(=O)O)C(=O)[C@H]2CC[C@@H](C)CC2)CC1` (relative stereo) [Compound 86, cis-3-[(4-Hydroxy-4-methyl-cyclohexyl)-(4-methyl-cyclohexanecarbonyl)-amino]-5-phenyl-thiophene-2-carboxylic acid] was tested. Which IC50 did it give?
Answer: < 5 µM

Question: Which IC50 does the source give for `C[C@H]1CC[C@H](C(=O)N(c2cc(-c3ccccc3)sc2C(=O)O)[C@H]2CCC[C@@H](O)C2)CC1` (stereo in doubt) [Compound 87, 3-[(3-hydroxy-cyclohexyl)-(4-methyl-cyclohexanecarbonyl)-amino]-5-phenyl-thiophene-2-carboxylic acid] here?
Answer: < 5 µM

Question: For `CCN(C(=O)c1ccc(C)cc1)c1cc(-c2ccccc2)sc1C(=O)O` [Compound 84, 3-[ethyl-(4-methyl-benzoyl)-amino]-5-phenyl-thiophene-2-carboxylic acid], which IC50 is on record?
Answer: < 5 µM

Question: Which IC50 does the source give for `CC1CCC(C(=O)N(Cc2cccnc2)c2cc(-c3ccccc3)sc2C(=O)O)CC1` (stereo not shown) [Compound 3, 3-[(4-methyl-cyclohexanecarbonyl)-pyridin-3-ylmethyl-amino]-5-phenyl-thiophene-2-carboxylic acid] here?
Answer: < 5 µM

Question: Which IC50 does the source give for `CC1=CCC(C(=O)N(c2cc(-c3ccccc3)sc2C(=O)O)C(C)C)CC1` (stereo not shown) [Compound 17, 3-[isopropyl-(4-methyl-cyclohex-3-enecarbonyl)-amino]-5-phenyl-thiophene-2-carboxylic acid] here?
Answer: < 5 µM

Question: Which IC50 does the source give for `CC1CCC(C(=O)N(c2cc(-c3ccc(C#N)cc3)sc2C(=O)O)C2CCC(O)CC2)CC1` (stereo not shown) [Compound 61, 5-(4-cyano-phenyl)-3-[(4-hydroxy-cyclohexyl)-(4-methyl-cyclohexanecarbonyl)-amino]-thiophene-2-carboxylic acid] here?
Answer: < 5 µM

Question: Which IC50 does the source give for `CC1COC(C(=O)N(c2cc(-c3ccccc3)sc2C(=O)O)C(C)C)OC1` (stereo not shown) [Compound 22, 3-[isopropyl-(5-methyl-[1,3]dioxane-2-carbonyl)-amino]-5-phenyl-thiophene-2-carboxylic acid] here?
Answer: 5 to 20 µM

Question: For `CC1CCC(C(=O)N(Cc2ccccn2)c2cc(-c3ccccc3)sc2C(=O)O)CC1` (stereo not shown) [Compound 14, 3-[(4-methyl-cyclohexanecarbonyl)-pyridin-2-ylmethyl-amino]-5-phenyl-thiophene-2-carboxylic acid], which IC50 is on record?
Answer: < 5 µM

Question: For `CC1CCC(C(=O)N(c2cc(-c3ccccc3)sc2C(=O)O)C(C)CN)CC1` (stereo not shown) [Compound 36, 3-[(2-amino-1-methyl-ethyl)-(4-methyl-cyclohexanecarbonyl)-amino]-5-phenyl-thiophene-2-carboxylic acid], which IC50 is on record?
Answer: < 5 µM

Question: Which IC50 does the source give for `CO[C@H]1CC[C@H](N(c2cc(-c3ccccc3)sc2C(=O)O)C(=O)[C@H]2CC[C@H](C)CC2)CC1` [Compound 46, 3-[(4-methoxy-cyclohexyl)-(4-methyl-cyclohexanecarbonyl)-amino]-5-phenyl-thiophene-2-carboxylic acid] here?
Answer: < 5 µM

Question: Which IC50 does the source give for `COc1ccc(-c2cc(N(C(=O)C3CCC(C)CC3)C3CCC(O)CC3)c(C(=O)O)s2)cc1` (stereo not shown) [Compound 60, 3-[(4-hydroxy-cyclohexyl)-(4-methyl-cyclohexanecarbonyl)-amino]-5-(4-methoxy-phenyl)-thiophene-2-carboxylic acid] here?
Answer: < 5 µM

Question: `CC1CCC(C(=O)N(c2cc(-c3ccccc3)sc2C(=O)O)C2CCC[NH+](C)CC2)CC1` (stereo not shown) [Compound 49, 4-[(2-carboxy-5-phenyl-thiophen-3-yl)-(4-methyl-cyclohexanecarbonyl)-amino]-1-methyl-azepanium chloride] was tested. Which IC50 did it give?
Answer: < 5 µM

Question: How did the IC50 turn out when `CC1CCC(C(=O)N(CC2OCCO2)c2cc(-c3ccccc3)sc2C(=O)O)CC1` (stereo not shown) [Compound 8, 3-[[1,3]dioxolan-2-ylmethyl-(4-methyl-cyclohexanecarbonyl)-amino]-5-phenyl-thiophene-2-carboxylic acid] was run?
Answer: < 5 µM

Question: `C[C@H]1CC[C@H](C(=O)N(c2cc(-c3ccccc3)sc2C(=O)O)[C@H]2CC[C@H](O)CC2)CC1` [Compound 15, 3-[(trans-4-Hydroxy-cyclohexyl)-(trans-4-methyl-cyclohexanecarbonyl)-amino]-5-phenyl-thiophene-2-carboxylic acid] was tested. Which IC50 did it give?
Answer: < 5 µM

Question: How did the IC50 turn out when `COc1ccc(CN2CCC(N(c3cc(-c4ccccc4)sc3C(=O)O)C(=O)[C@H]3CC[C@H](C)CC3)CC2=O)cc1` (stereo partly shown) [Compound 42, 3-[[1-(4-methoxy-benzyl)-2-oxo-piperidin-4-yl]-(4-methyl-cyclohexanecarbonyl)-amino]-5-phenyl-thiophene-2-carboxylic acid] was run?
Answer: < 5 µM

Question: Which IC50 does the source give for `C[C@H]1CC[C@H](C(=O)N(c2cc(-c3ccc(F)cc3)sc2C(=O)O)[C@H]2CC[C@H](O)CC2)CC1` [Compound 50, 5-(4-fluoro-phenyl)-3-[(4-hydroxy-cyclohexyl)-(4-methyl-cyclohexanecarbonyl)-amino]-thiophene-2-carboxylic acid] here?
Answer: < 5 µM
